Assay results from US20230039395A1, “LSD AND […] EQUIVALENCE DETERMINATION” (Universitätsspital Basel, priority 2021, published 2023).

Assays:
[1] = 75 μg LSD base in saline i.v., previous studies; cited from earlier work
[2] = Adjective Mood Rating Scale (AMRS) in healthy subjects
[3] = four unused old LSD capsules, years after study completion; cited from earlier work
[4] = Acute adverse effects, 66-item List of Complaints; settings: for headache, number of subjects reporting: 0-12 hours, high dose; for headache, number of subjects reporting / balance disturbed, number of subjects / dry mouth, number of subjects reporting: 28 subjects
[5] = Spontaneously reported adverse events after treatment; format: in vivo, human; settings: for type and amount of adverse events, psilocybin versus LSD: in vivo; for flash back episodes: within 72 hours after administration, nine episodes in five subjects
Experimental: (§1) The subjects then underwent baseline measurements.
In addition to the adverse effects systematically assessed with the list of complaints, there were spontaneously reported adverse events after LSD or psilocybin administration as assessed in the evening of the treatment day or within 48 hours after treatment. These adverse after effects after psilocybin or LSD administration included headaches (four subjects after psilocybin and three after LSD), migraine attack (one subject after LSD), nosebleeds (one subject after psilocybin), low mood (two subjects after psilocybin and two subjects after LSD), nausea (two subjects after psilocybin and one subject after LSD), nightmares (one subject after psilocybin), restlessness (one subject after psilocybin and one subject after LSD), vivid dreams (one subject after LSD), insomnia (one subject after psilocybin), involuntary movement in lower extremities (one subject after LSD). Nine flash back episodes occurred in five subjects (one to 20 times within 72 hours after substance administration), five episodes occurred after LSD administration, four episodes occurred after psilocybin administration.

[6] = Endocrine effects: plasma cortisol and prolactin (PRL); format: in vivo, human; settings: 2.5 hours after administration
Experimental: as §1
Endocrine effects: Plasma concentrations of cortisol, prolactin (PRL), oxytocin, and brain-derived neurotrophic factor (BDNF) were determined as described elsewhere (Holze et al., 2021; Schmid et al., 2015). Cortisol and PRL were measured before and 2.5 hours after drug administration. BDNF was measured before and three times after drug administration.
The criterion for significance was p<0.05.

[7] = Dose equivalence of LSD and psilocybin extrapolated from acute effects; format: in vivo, human; settings: LSD 200 μg
[8] = target: serotonin (5-HT)2A receptors (Homo sapiens, UniProt P28223); settings: cited from earlier work
[9] = Plasma exposure of LSD and iso-LSD after LSD capsules in previous studies; settings: similar bioavailability assumed
[10] = Autonomic effects (blood pressure, heart rate, body temperature, pupil) in healthy subjects; settings: for rate pressure product: high dose of both substances
[11] = after the 200 μg dose as two 100 μg LSD capsules (Steuer et al., 2017); cited from earlier work
[12] = Mystical Experience Questionnaire (MEQ43 and MEQ30) in healthy subjects; settings: LSD 200 μg; MEQ43 p=0.002, MEQ30 p=0.015
[13] = Subjective drug effects on visual analog scales (VAS) in healthy subjects
D1-3 receptors = settings: cited from earlier work
[14] = 5 Dimensions of Altered States of Consciousness Scale (5D-ASC) in healthy subjects
5-HT transporter (SERT) = 5-HT transporter (SERT) (Homo sapiens, UniProt P31645); settings: cited from earlier work
[15] = evening of treatment day or within 48 hours

Sequence of 5-HT transporter (SERT) (P31645 whole entry, species assumed): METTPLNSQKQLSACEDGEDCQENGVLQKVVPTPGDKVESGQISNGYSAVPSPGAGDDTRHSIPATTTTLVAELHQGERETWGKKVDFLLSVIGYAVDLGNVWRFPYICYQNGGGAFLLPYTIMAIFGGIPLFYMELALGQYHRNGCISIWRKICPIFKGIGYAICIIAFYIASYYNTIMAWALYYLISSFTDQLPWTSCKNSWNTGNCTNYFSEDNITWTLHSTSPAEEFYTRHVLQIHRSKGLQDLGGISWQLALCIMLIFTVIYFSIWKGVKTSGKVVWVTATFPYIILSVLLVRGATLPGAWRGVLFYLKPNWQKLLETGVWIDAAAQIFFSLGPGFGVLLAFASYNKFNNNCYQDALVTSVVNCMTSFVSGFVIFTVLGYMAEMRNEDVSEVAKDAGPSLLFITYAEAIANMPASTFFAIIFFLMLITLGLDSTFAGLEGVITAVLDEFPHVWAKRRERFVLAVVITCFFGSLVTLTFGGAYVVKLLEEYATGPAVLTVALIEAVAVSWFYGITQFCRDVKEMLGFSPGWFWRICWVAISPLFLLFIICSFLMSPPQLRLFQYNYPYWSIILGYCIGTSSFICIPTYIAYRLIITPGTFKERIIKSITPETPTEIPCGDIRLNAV
Sequence of serotonin (5-HT)2A receptors (P28223 whole entry): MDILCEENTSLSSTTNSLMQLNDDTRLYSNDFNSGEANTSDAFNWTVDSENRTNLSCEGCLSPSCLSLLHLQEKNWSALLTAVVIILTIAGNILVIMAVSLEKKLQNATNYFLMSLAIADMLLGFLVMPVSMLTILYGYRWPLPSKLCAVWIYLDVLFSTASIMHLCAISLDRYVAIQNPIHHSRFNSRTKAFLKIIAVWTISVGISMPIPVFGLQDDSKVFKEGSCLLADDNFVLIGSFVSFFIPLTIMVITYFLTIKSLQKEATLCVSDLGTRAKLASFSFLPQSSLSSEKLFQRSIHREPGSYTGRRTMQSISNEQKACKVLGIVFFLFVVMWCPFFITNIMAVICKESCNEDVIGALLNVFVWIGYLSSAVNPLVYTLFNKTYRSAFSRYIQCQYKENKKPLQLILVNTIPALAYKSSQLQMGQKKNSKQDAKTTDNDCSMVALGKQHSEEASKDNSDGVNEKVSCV

## CCN(CC)C(=O)[C@@H]1C=C2c3cccc4[nH]cc(c34)C[C@H]2N(C)C1 [LSD, lysergic acid diethylamide]
[1]
  clinical response to 75 μg intravenous LSD versus oral 100 μg dose: not significantly different
[2]; LSD 100 and 200 μg
  AMRS emotional excitation versus 15 mg or 30 mg psilocybin: greater
[2]; all doses
  AMRS extraversion ratings versus placebo: decrease
  AMRS inactivation ratings versus placebo: significantly and similarly increased
  AMRS introversion ratings versus placebo: increased
[2]; both doses of LSD (100 and 200 μg)
  AMRS self-rated anxiety: slightly but significantly increased
[3]
  remaining amount of LSD in capsules: 22 ± 7 µg
[4]
  headache, number of subjects reporting: 13 subjects
  balance disturbed, number of subjects: 16 subjects
  dry mouth, number of subjects reporting: 15 subjects
[4]; in vivo
  frequency of acute adverse effects, LSD versus psilocybin: equally frequent
  most frequent acute adverse effects: fatigue, headache, lack of concentration, lack of energy, dullness, feeling week, loss of appetite, dry mouth, and impaired balance
  total number of acute complaints, 100 versus 200 μg LSD: did not differ
[5]; [15]
  headaches, spontaneously reported: three
  involuntary movement in lower extremities, spontaneously reported: one
  low mood, spontaneously reported: two
  migraine attack, spontaneously reported: one
  nausea, spontaneously reported: one
  restlessness, spontaneously reported: one
  vivid dreams, spontaneously reported: one
[5]
  type and amount of adverse events, psilocybin versus LSD: comparable
  flash back episodes: five
[6]
  PRL plasma concentrations: significantly increased
  cortisol plasma concentrations: significantly increased
[7]
  overall strength versus the 30 mg psilocybin dose: overall stronger
[8]
  binding to 5-HT2A receptors: bind
[9]; 100 μg dose
  AUC∞ as percent of the value expected from confirmed 96 μg LSD doses: 61%
[9]; 200 μg dose
  AUC∞ as percent of the value expected from confirmed 96 μg LSD doses: 76%
[10]; LSD 200 μg, p=0.002
  increase in heart rate versus psilocybin 30 mg: significantly more
[10]
  rate pressure product: similarly increased
[11]
  plasma AUC24: 21 ng·h/mL
[12]
  MEQ ineffability ratings versus 30 mg psilocybin: significantly greater
[13]; 15-30 mg psilocybin range compared to 100-200 μg LSD range
  dose-response curve of subjective effects: plateau effect
[13]; LSD 100 and 200 μg oral
  overall effects and positive drug effects, 200 μg versus 100 μg LSD: comparable positive drug effects
[13]; human, in vivo
  bad drug effects, 200 μg versus 100 μg LSD: more
[13]; p=0.014
  ego dissolution (VAS), 200 μg versus 100 μg LSD: more and greater
[13]; p=0.054
  anxiety (VAS), 200 μg versus 100 μg LSD: more and near-significantly greater
D1-3 receptors
  action on D1-3 receptors: stimulates
[14]; human, in vivo
  alterations of the mind in the 5D-ASC scale: marked alterations of the mind
[14]; p=0.02
  5D-ASC AED (anxious ego dissolution), 200 μg versus 100 μg LSD: greater
[14]; p=0.03
  5D-ASC anxiety, 200 μg versus 100 μg LSD: greater
[14]; p=0.04
  5D-ASC impairments of control and cognition, 200 μg versus 100 μg LSD: greater

## CN(C)CCc1c[nH]c2cccc(O)c12 [Psilocin, psilocin]
5-HT transporter (SERT)
  action on the 5-HT transporter (SERT): inhibits

## CCN(CC)C(=O)[C@H]1C=C2c3cccc4[nH]cc(c34)C[C@H]2N(C)C1 [iso-LSD]
[11]
  plasma AUC24: 9.2 ng·h/mL

## CN(C)CCc1c[nH]c2cccc(OP(=O)(O)O)c12 [psilocybin]
[4]
  headache, number of subjects reporting: 18 subjects
  balance disturbed, number of subjects: 16 subjects
  dry mouth, number of subjects reporting: 9 subjects
[4]; in vivo
  frequency of acute adverse effects, LSD versus psilocybin: equally frequent
  most frequent acute adverse effects: fatigue, headache, lack of concentration, lack of energy, dullness, feeling week, loss of appetite, dry mouth, and impaired balance
[4]; psilocybin 15 mg, p<0.01
  acute adverse effects versus LSD 100 μg: fewer
[4]; psilocybin 15 mg, p<0.1
  acute adverse effects versus psilocybin 30 mg: trend toward fewer
[5]; [15]
  headaches, spontaneously reported: four
  insomnia, spontaneously reported: one
  low mood, spontaneously reported: two
  nausea, spontaneously reported: two
  nightmares, spontaneously reported: one
  nosebleeds, spontaneously reported: one
  restlessness, spontaneously reported: one
[5]
  type and amount of adverse events, psilocybin versus LSD: comparable
  flash back episodes: four
[10]
  rate pressure product: similarly increased
[10]; psilocybin 30 mg, p<0.001
  increase in diastolic blood pressure versus LSD 200 μg: more
[10]; psilocybin 30 mg, p=0.04
  increase in systolic blood pressure versus LSD 200 μg: more
